Tested on: CHO cells
Assay type: cell-based, Chinese Hamster

Compound: CC[C@@]1([C@@H]2O[C@@H]([C@H]3O[C@@](O)(CO)[C@H](C)C[C@@H]3C)C[C@@H]2C)CC[C@H]([C@]2(C)CC[C@]3(C[C@H](O)[C@@H](C)[C@@H]([C@@H](C)[C@@H](OC)[C@H](C)C(=O)O)O3)O2)O1 [monensin]
- decrease in potency of FP33: > 100 fold
- protection against the other three fusion proteins: exceeded 20 fold
